Experimental data from PubChem BioAssay (NCI).
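Exposure lasted 48 hours, with cells grown in 96-well plates and compounds tested at five concentrations. GI50 = concentration required for 50% inhibition of growth. Definition used: TGI = concentration required for complete inhibition of growth.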

What follows are compounds tested on HL-60(TB) leukemia (assay: NCI-60 cell line screen, 48 h).
With CC1(C)OC2C(CO[Si](C)(C)C(C)(C)C)OC(n3c(I)c(C#C[Si](C)(C)C)c(=O)[nH]c3=O)C2O1 (stereo unspecified) the GI50 was 2.35 µM and the TGI was 15.2 µM.
CN(C)CC[C@H](CSc1ccccc1)Nc1ccc(S(=O)(=O)NC(=O)c2ccc(N3CCN(Cc4ccccc4-c4ccc(Cl)cc4)CC3)cc2)cc1[N+](=O)[O-] was tested, and the GI50 was 0.35 µM and the TGI was 4.56 µM.
COc1ccc(-c2ccc(=O)oc2C#Cc2cc(OC)c(OC)c(OC)c2)cc1O gave a GI50 of 0.316 µM and a TGI greater than 100 µM.
For O=C(/C=C/c1ccc[nH]1)c1ccc(-n2ccc(C(F)(F)F)n2)cc1, the GI50 was 0.307 µM and the TGI was 4.12 µM.
Work on O=C(c1ccco1)c1c(C(F)(F)F)nc2ccc(Cl)cc2[n+]1[O-] yielded a GI50 of 25.2 µM and a TGI of 85.1 µM.
With Clc1cc2c(c(CSc3nc4ccccc4n4cccc34)c1)OCOC2 the GI50 was greater than 100 µM and the TGI was greater than 100 µM.
Compound CN1CCN(c2ccc(Nc3cc(-c4cccc(-n5ccc6cc(C7CC7)cc(F)c6c5=O)c4CO)cn(C)c3=O)nc2)CC1 has a GI50 of 2.21 µM and a TGI of 4.4 µM.
For COc1ccc2nc3ccccc3c(NCc3ccc(F)cc3)c2c1, the GI50 was 1.17 µM and the TGI was 2.8 µM.
With CN(C)C1CCN(C(=O)c2ccc(NC(=O)Nc3ccc(-c4nc(N5CCOCC5)c5cccn5n4)cc3)cc2)CC1 the GI50 was 0.105 µM and the TGI was 1.76 µM.
Compound COc1cc(N=Nc2ccc(O)c3ncccc23)c2ncccc2c1 has a GI50 of 2.47 µM and a TGI of 9.16 µM.
CCOC(=O)N[C@H]1CCc2cc(OC)c(OC)c(OC)c2-c2ccc(SC)c(=O)cc21 was tested, and the TGI was less than 0.01 µM.
With CCn1c(O)c(/C=N/NC(=O)C(C)c2ccc(CC(C)C)cc2)sc1=S (stereo unspecified) the GI50 was 0.312 µM and the TGI was 1.52 µM.
Work on C[C@@H]1C[C@@H]([C@@H](CC2CC(=O)NC(=O)C2)OC(=O)CC(=O)c2ccccc2)C(=O)[C@@H](C)C1 yielded a GI50 of 0.402 µM and a TGI greater than 100 µM.
For N=c1c2c(-c3ccccc3)c(-c3ccccc3)n(Cc3ccccc3)c2ncn1C1CCC(O)CC1 (stereo unspecified), the GI50 was 1.19 µM and the TGI was 3.66 µM.
Compound O=c1c(F)cn(Cc2ccc(C34CC5CC(CC(C5)C3)C4)c(O)c2)c(=O)n1Cc1ccc(C23CC4CC(CC(C4)C2)C3)c(O)c1 has a GI50 of 8.32 µM and a TGI of 54.2 µM.
In the case of CCOC(=O)Nc1cc2c(c(N)n1)N=C(c1ccccc1)CO2, the GI50 was 0.0303 µM.
For CC1CC2CCCC(O)=C2C(=O)O1 (stereo unspecified), the TGI was greater than 100 µM.
Compound CC(C)(/C=C(\C#N)C(=O)N1CCC[C@@H](n2nc(-c3ccc(Oc4ccccc4)cc3F)c3c(N)ncnc32)C1)N1CCN(C2COC2)CC1 has a GI50 of 5.28 µM and a TGI of 32.5 µM.
In the case of O=c1oc2ccc(-c3ccc(F)cc3F)cc2c(=O)n1-c1cccc(C(F)(F)F)c1, the GI50 was 1.33 µM and the TGI was 3.89 µM.
For COC(=O)c1ccc2c(c1)C(=O)c1c-2n(CCCN=[N+]=[N-])c(=O)c2cc(OC)c(OC)cc12, the GI50 was 91.9 µM and the TGI was greater than 100 µM.
Compound O=C(Cc1ccc(F)c(Cl)c1)Nc1cc(C2(C(F)(F)F)CC2)nn1CC1CCCCC1 has a GI50 of 3.27 µM and a TGI of 7.79 µM.
NC1CCN(Cc2ccccc2)CC1 was tested, and the GI50 was greater than 100 µM and the TGI was greater than 100 µM.
Nc1ncn([C@@H]2O[C@H](CO)[C@@H](O)[C@H]2O)c(=O)n1 was tested, and the GI50 was 0.699 µM and the TGI was 4.91 µM.
CC(=O)Nc1ccc(-c2csc(Nc3cccc(-c4csc(C)n4)c3)n2)cc1 was tested, and the GI50 was 0.609 µM.
For C=CCC1(c2ccc(OC)cc2)C=CC(=O)CC1 (stereo unspecified), the TGI was greater than 100 µM.
COc1ccc(C(=O)Nc2ccc(O)c(=O)cc2)cc1 gave a TGI of 54.6 µM.

What follows are compounds tested on SNB-75 CNS (assay: NCI-60 cell line screen, 48 h).
Work on CC1(C)OC2C(CO[Si](C)(C)C(C)(C)C)OC(n3c(I)c(C#C[Si](C)(C)C)c(=O)[nH]c3=O)C2O1 (stereo unspecified) yielded a GI50 of 36.7 µM and a TGI greater than 100 µM.
CN(C)CC[C@H](CSc1ccccc1)Nc1ccc(S(=O)(=O)NC(=O)c2ccc(N3CCN(Cc4ccccc4-c4ccc(Cl)cc4)CC3)cc2)cc1[N+](=O)[O-] was tested, and the GI50 was 6.09 µM and the TGI was greater than 100 µM.
COc1ccc(-c2ccc(=O)oc2C#Cc2cc(OC)c(OC)c(OC)c2)cc1O gave a GI50 of 0.167 µM and a TGI of 2.92 µM.
Work on O=C(/C=C/c1ccc[nH]1)c1ccc(-n2ccc(C(F)(F)F)n2)cc1 yielded a GI50 of 0.877 µM and a TGI of 4.37 µM.
Compound O=C(c1ccco1)c1c(C(F)(F)F)nc2ccc(Cl)cc2[n+]1[O-] has a GI50 of 54 µM and a TGI greater than 100 µM.
Clc1cc2c(c(CSc3nc4ccccc4n4cccc34)c1)OCOC2 was tested, and the GI50 was 6.48 µM and the TGI was 26.8 µM.
For CN1CCN(c2ccc(Nc3cc(-c4cccc(-n5ccc6cc(C7CC7)cc(F)c6c5=O)c4CO)cn(C)c3=O)nc2)CC1, the GI50 was 1.33 µM and the TGI was 2.96 µM.
COc1ccc2nc3ccccc3c(NCc3ccc(F)cc3)c2c1 showed a GI50 of 2.46 µM and a TGI of 9.2 µM.
In the case of CN(C)C1CCN(C(=O)c2ccc(NC(=O)Nc3ccc(-c4nc(N5CCOCC5)c5cccn5n4)cc3)cc2)CC1, the GI50 was 0.0138 µM and the TGI was 0.0711 µM.
Compound COc1cc(N=Nc2ccc(O)c3ncccc23)c2ncccc2c1 has a GI50 of 4.53 µM and a TGI greater than 100 µM.
For CCOC(=O)N[C@H]1CCc2cc(OC)c(OC)c(OC)c2-c2ccc(SC)c(=O)cc21, the GI50 was less than 0.01 µM.
CCn1c(O)c(/C=N/NC(=O)C(C)c2ccc(CC(C)C)cc2)sc1=S (stereo unspecified) showed a GI50 of 0.241 µM and a TGI of 0.757 µM.
With C[C@@H]1C[C@@H]([C@@H](CC2CC(=O)NC(=O)C2)OC(=O)CC(=O)c2ccccc2)C(=O)[C@@H](C)C1 the GI50 was 0.911 µM and the TGI was greater than 55.1 µM.
N=c1c2c(-c3ccccc3)c(-c3ccccc3)n(Cc3ccccc3)c2ncn1C1CCC(O)CC1 (stereo unspecified) gave a GI50 of 0.92 µM and a TGI of 8.85 µM.
In the case of O=c1c(F)cn(Cc2ccc(C34CC5CC(CC(C5)C3)C4)c(O)c2)c(=O)n1Cc1ccc(C23CC4CC(CC(C4)C2)C3)c(O)c1, the GI50 was 15.1 µM and the TGI was 30 µM.
Work on CC1CC2CCCC(O)=C2C(=O)O1 (stereo unspecified) yielded a TGI greater than 100 µM.
Compound CC(C)(/C=C(\C#N)C(=O)N1CCC[C@@H](n2nc(-c3ccc(Oc4ccccc4)cc3F)c3c(N)ncnc32)C1)N1CCN(C2COC2)CC1 has a GI50 of 5.98 µM and a TGI of 20.7 µM.
Compound O=c1oc2ccc(-c3ccc(F)cc3F)cc2c(=O)n1-c1cccc(C(F)(F)F)c1 has a GI50 of 1.33 µM and a TGI of 3.78 µM.
COC(=O)c1ccc2c(c1)C(=O)c1c-2n(CCCN=[N+]=[N-])c(=O)c2cc(OC)c(OC)cc12 was tested, and the GI50 was 8.24 µM and the TGI was greater than 100 µM.
For O=C(Cc1ccc(F)c(Cl)c1)Nc1cc(C2(C(F)(F)F)CC2)nn1CC1CCCCC1, the GI50 was 0.808 µM and the TGI was 5.99 µM.
NC1CCN(Cc2ccccc2)CC1 was tested, and the GI50 was greater than 100 µM and the TGI was greater than 100 µM.
Compound Nc1ncn([C@@H]2O[C@H](CO)[C@@H](O)[C@H]2O)c(=O)n1 has a GI50 of 1.63 µM and a TGI of 6.2 µM.
C=CCC1(c2ccc(OC)cc2)C=CC(=O)CC1 (stereo unspecified) was tested, and the TGI was greater than 100 µM.

The compounds below were run on SW-620 colon (assay: NCI-60 cell line screen, 48 h).
With CC1(C)OC2C(CO[Si](C)(C)C(C)(C)C)OC(n3c(I)c(C#C[Si](C)(C)C)c(=O)[nH]c3=O)C2O1 (stereo unspecified) the GI50 was 1.69 µM and the TGI was 3.21 µM.
In the case of CN(C)CC[C@H](CSc1ccccc1)Nc1ccc(S(=O)(=O)NC(=O)c2ccc(N3CCN(Cc4ccccc4-c4ccc(Cl)cc4)CC3)cc2)cc1[N+](=O)[O-], the GI50 was 4.02 µM and the TGI was greater than 61.1 µM.
For COc1ccc(-c2ccc(=O)oc2C#Cc2cc(OC)c(OC)c(OC)c2)cc1O, the GI50 was 0.15 µM and the TGI was greater than 100 µM.
In the case of O=C(/C=C/c1ccc[nH]1)c1ccc(-n2ccc(C(F)(F)F)n2)cc1, the GI50 was greater than 100 µM and the TGI was greater than 100 µM.
O=C(c1ccco1)c1c(C(F)(F)F)nc2ccc(Cl)cc2[n+]1[O-] was tested, and the GI50 was 13.4 µM and the TGI was 29.6 µM.
Work on Clc1cc2c(c(CSc3nc4ccccc4n4cccc34)c1)OCOC2 yielded a GI50 greater than 100 µM and a TGI greater than 100 µM.
Work on CN1CCN(c2ccc(Nc3cc(-c4cccc(-n5ccc6cc(C7CC7)cc(F)c6c5=O)c4CO)cn(C)c3=O)nc2)CC1 yielded a GI50 of 4.74 µM and a TGI of 23.9 µM.
With COc1ccc2nc3ccccc3c(NCc3ccc(F)cc3)c2c1 the GI50 was 1.63 µM and the TGI was 7.03 µM.
CN(C)C1CCN(C(=O)c2ccc(NC(=O)Nc3ccc(-c4nc(N5CCOCC5)c5cccn5n4)cc3)cc2)CC1 gave a GI50 of 0.128 µM and a TGI of 11.8 µM.
Work on COc1cc(N=Nc2ccc(O)c3ncccc23)c2ncccc2c1 yielded a GI50 of 3.86 µM and a TGI greater than 100 µM.
CCOC(=O)N[C@H]1CCc2cc(OC)c(OC)c(OC)c2-c2ccc(SC)c(=O)cc21 gave a TGI greater than 100 µM.
CCn1c(O)c(/C=N/NC(=O)C(C)c2ccc(CC(C)C)cc2)sc1=S (stereo unspecified) showed a GI50 of 0.394 µM and a TGI greater than 40.9 µM.
C[C@@H]1C[C@@H]([C@@H](CC2CC(=O)NC(=O)C2)OC(=O)CC(=O)c2ccccc2)C(=O)[C@@H](C)C1 showed a GI50 of 0.512 µM and a TGI greater than 43.1 µM.
Work on N=c1c2c(-c3ccccc3)c(-c3ccccc3)n(Cc3ccccc3)c2ncn1C1CCC(O)CC1 (stereo unspecified) yielded a GI50 of 0.0497 µM and a TGI of 12.9 µM.
